From paper PMC5766630, “Non-estrogenic Xanthohumol Derivatives Mitigate Insulin Resistance and Cognitive Impairment in High-Fat Diet-induced Obese Mice” (Scientific Reports, 2018)

Assays:
mice = conditions: cited from earlier work
HFD-fed C57BL/6 J mice = system: HFD-fed C57BL/6 J mice; design: method as in PMID 26976708; conditions: oral, 60 mg/kg/day; cited from earlier work
quinone reductase = system: quinone reductase; design: method as in PMID 10737704; conditions: cited from earlier work
[1] = LC-MS/MS analysis of XN, DXN and TXN in mouse liver, plasma and muscle; type: in vivo; conditions: for Plasma concentration, fold greater than combined XN + IX / Muscle concentration, fold greater than combined XN + IX / Liver concentration, fold greater than combined XN + IX: HFD mice, 30 mg/kg/day in diet, 13 weeks; for Muscle concentration, fold greater than combined XN + IX: hind leg skeletal muscle; for Liver concentration, fold greater than combined XN + IX: steady state
Description: Nine-week old male C57BL/6J mice, obtained from The Jackson Laboratory (Bar Harbor, ME, USA), were housed individually in plastic cages under a 12–12-hr light-dark cycle. They were assigned randomly to four groups consisting of 12 mice each. One group (control) was fed a HFD (Dyets Inc., Bethlehem, PA, USA) containing 60%, 20% and 20% total calories from fat, carbohydrate and protein, respectively, and the other three groups were fed the HFD containing XN, DXN, or TXN. The test compounds were dissolved in an isotropic mixture of oleic acid:propylene glycol:Tween 80, 0.9:1:1 by weight (OPT) before incorporation into the HFD. The control diet contained an identical amount of OPT. All diets were prepared in pellet form by Dyets, Inc. (Bethlehem, PA, USA). The mouse diets were formulated to deliver a dose of 30 mg test compound per kg body weight per day. Food intake was measured three times per week and body weights were recorded weekly. At the end of 13 weeks of feeding, the mice were euthanized and blood, liver and skeletal muscle were collected for analyses. All animal protocols were approved by Institutional Animal Care and Use Committee (IACUC) at Oregon State University. Animal experiments were carried out in accordance with the relevant guidelines and regulations.
Liver and plasma from each mouse were subjected to enzymatic hydrolysis, extracted and analyzed using the paper strip extraction technique as previously described[36],[96]. For skeletal muscle, approximately 200 mg of frozen muscle tissue were placed into tubes containing ceramic beads (1.4 mm Ceramic, Bulk Beads, Fisher Scientific, Pittsburgh, PA, USA) and methanol:water (90:10; 500 μL/200 mg tissue) and homogenized using a Precellys 24 (PEQLAB Biotechnology GmbH, Germany). The tissue was homogenized for 3 × 30 sec at 6,500 rpm with 20 sec intervals and then centrifuged at 15,700 × g for 10 minutes and 100 μl of supernatant was used for the paper strip extraction as previously described[36],[96]. Concentrations of XN, DXN and TXN were calculated using an internal standard, 2′,4-dihydroxychalcone (DHC), with matrix-based calibration curves and Analyst Software (Analyst 1.5, AB Sciex, Foster City, CA, USA). Samples were analyzed by LC-MS/MS using an AB Sciex 4000 Q-trap triple quadrupole mass spectrometer using a source temperature of 600 °C and a needle voltage of −4500 V. The source, curtain and collision gases were all nitrogen. Analytes were separated by high performance liquid chromatography (HPLC) using a 2.1 × 50 mm Agilent Zorbax 300 SB – C8 3.5 µm column (Agilent, Santa Clara, CA, USA). The elution gradient was 25 to 60% solvent B (0.1% formic acid in acetonitrile) in solvent A (aqueous 0.1% formic acid) in 2.6 minutes using a flow rate of 0.5 ml/min after an initial 1.4 min at 25% solvent B. The gradient was then increased to 100% solvent B in 0.1 min and held at 100% B for 1.4 min, then dropped to 25% B in 0.25 minutes, followed by re-equilibration with 25% B for 9.25 minutes. SRM transitions for quantification were: m/z 353 → 119 for XN, m/z 353 → 233 for IX, m/z 339 → 219 for 8-PN, m/z 355 → 249 for DXN, m/z 357 → 251 for TXN, and m/z 239 → 119 for DHC.

SMILES | Dose with no detectable toxicity (mice) | HOMA-IR, change vs vehicle/HFD controls (HFD-fed C57BL/6 J mice) [%] | Interleukin-6 (IL-6), change vs vehicle/HFD controls (HFD-fed C57BL/6 J mice) [%] | Leptin, change vs vehicle/HFD controls (HFD-fed C57BL/6 J mice) [%] | Plasma LDL-c, change vs vehicle/HFD controls (HFD-fed C57BL/6 J mice) [%] | Plasma PCSK9, change vs vehicle/HFD controls (HFD-fed C57BL/6 J mice) [%] | Induction of quinone reductase (quinone reductase) | Plasma concentration, fold greater than combined XN + IX [1] [fold] | Muscle concentration, fold greater than combined XN + IX [1] [fold] | Liver concentration, fold greater than combined XN + IX [1] [fold] | concentration at 13 weeks ([1]; male, C57BL/6J, mouse, liver, oral dosing at 30 mg/kg/day, read-out: Liver concentration (highest measured)) [µM] | Liver tissue concentration (highest measured) ([1]; mouse dose of 30 mg/kg/day) [nmol/g]
COc1cc(O)c(CC=C(C)C)c(O)c1C(=O)/C=C/c1ccc(O)cc1 [XN, 3′-[3,3-dimethylallyl]-2′,4′,4-trihydroxy-6′-methoxychalcone] | at least 1,000 mg/kg | −52 | −78 | −41 | −80 | −44 | potent inducer |  |  |  |  | 
COc1cc(O)c(CC=C(C)C)c(O)c1C(=O)CCc1ccc(O)cc1 [DXN, α,β-Dihydroxanthohumol] |  |  |  |  |  |  |  | 7 | 7 | 6 |  | 
COc1cc(O)c(CCC(C)C)c(O)c1C(=O)CCc1ccc(O)cc1 [TXN, tetrahydroxanthohumol] |  |  |  |  |  |  |  | 10 | 5 | 12 | 5 | 5
